Data published in patent US20210171948A1, “COMPOSITIONS AND METHODS FOR TARGETING GLYPICAN-2 IN THE TREATMENT OF CANCER” (Shepherd Therapeutics, Inc., priority 2019, published 2021).
Strand notation (5' to 3'): a small letter for the sugar, then the base; units joined by * are phosphorothioate-linked, units joined directly phosphodiester-linked; [ ] holds rarer units or linkages, { } end groups; capitals alone tell only the bases. d = 2'-deoxy (DNA); r = 2'-OH (RNA)

What was measured:
Format in all cases: cell-based
[1] = tested on: CHLA-136 cells; test: Cisplatin IC50 in siRNA-transfected cells, Cell Titer Glo 2.0 viability (Example 5); conditions: for Data Summary: effect of knockdown on sensitivity to cisplatin: CHLA-136; for IC50: CHLA-136 cells transfected with the labelled siRNA, cisplatin added 24 hours post transfection, 72 hour incubation
Method: (§1) GPC2 mRNA was reduced using the indicated siRNAs and changes in cell viability were assessed in multiple cancer cell lines, in combination with Cisplatin treatment. Cells were transfected with either a scrambled control siRNA or with GPC2 siRNA sequences 3 or 5 from Table 7 using the RNAiMAX Lipofectamine kit (Invitrogen, Carlsbad, Calif.), as previously described, in either in 96 well (for viability assays) or 6 well format (for total RNA). Cisplatin was added at increasing concentrations (0 to 30 uM) to transfected cells at 24 hours post transfection. Following a 72 hour incubation period, cell viability was measured using Cell Titer Glo 2.0. Total RNA samples were also isolated to measure knockdown efficiency.

[2] = tested on: SKNAS cells; test: as above; conditions: for Data Summary: effect of knockdown on sensitivity to cisplatin: SKNAS; for IC50: SKNAS cells transfected with the labelled siRNA, cisplatin added 24 hours post transfection, 72 hour incubation
Method: as §1

[3] = tested on: GIST-T1 cells; test: as above; conditions: for IC50: GIST-T1 cells transfected with the labelled siRNA, cisplatin added 24 hours post transfection, 72 hour incubation
Method: as §1

[4] = tested on: CHP212 cells; test: as above; conditions: for Data Summary: effect of knockdown on sensitivity to cisplatin: CHP212; for IC50: CHP212 cells transfected with the labelled siRNA, cisplatin added 24 hours post transfection, 72 hour incubation
Method: as §1

[5] = tested on: SK-N-BE2 cells; test: as above; conditions: for IC50: SK-N-BE2 cells transfected with the labelled siRNA, cisplatin added 24 hours post transfection, 72 hour incubation
Method: as §1

[6] = tested on: SH-SY5Y cells; test: as above; conditions: for IC50: SH-SY5Y cells transfected with the labelled siRNA, cisplatin added 24 hours post transfection, 72 hour incubation
Method: as §1

[7] = tested on: CHLA-136 cells; test: Etoposide IC50 in siRNA-transfected cells, Cell Titer Glo 2.0 viability (Example 9); conditions: for IC50: CHLA-136 cells transfected with the labelled siRNA, etoposide added 24 hours post transfection, 72 hour incubation
Method: (§2) GPC2 mRNA expression was reduced and changes in cell viability were assessed in multiple neuroblastoma cell lines. Cells were transfected with either a control siRNA or with GPC2 siRNA sequences 3, 5 or 7 from Table 7 using the RNAiMAX Lipofectamine kit (Invitrogen, Carlsbad, Calif.) as previously described in 96 wells for viability assays. Etoposide was added at increasing concentrations (0-15 uM) to transfected cells at 24 hours post transfection. Following a 72 hour incubation period, viability measurement were made using Cell Titer Glo 2.0.

[8] = tested on: SKNAS cells; test: as above; conditions: for Data Summary: effect of knockdown on sensitivity to etoposide: SKNAS; for IC50: SKNAS cells transfected with the labelled siRNA, etoposide added 24 hours post transfection, 72 hour incubation
Method: as §2

[9] = tested on: KELLY cells; test: as above; conditions: for Data Summary: effect of knockdown on sensitivity to etoposide: KELLY; for IC50: KELLY cells transfected with the labelled siRNA, etoposide added 24 hours post transfection, 72 hour incubation
Method: as §2

[10] = tested on: CHLA-172 cells; test: as above; conditions: for Data Summary: effect of knockdown on sensitivity to etoposide: CHLA-172; for IC50: CHLA-172 cells transfected with the labelled siRNA, etoposide added 24 hours post transfection, 72 hour incubation
Method: as §2

[11] = tested on: CHLA-136 cells; test: Doxorubicin IC50 in siRNA-transfected cells, Cell Titer Glo viability (Example 8); conditions: for IC50: CHLA-136 cells transfected with the labelled siRNA, doxorubicin added 24 hours post transfection, 72 hour incubation
Method: as §2, with “with GPC-2” for “with GPC2”, “assays. Doxorubicin” for “assays. Etoposide”, “concentrations (0-5” for “concentrations (0-15”, “viability measurements” for “viability measurement”, “Titer Glo.” for “Titer Glo 2.0.”

[12] = tested on: SKNAS cells; test: as above; conditions: for Data Summary: effect of knockdown on sensitivity to doxorubicin: SKNAS; for IC50: SKNAS cells transfected with the labelled siRNA, doxorubicin added 24 hours post transfection, 72 hour incubation
Method: as §2, with “with GPC-2” for “with GPC2”, “assays. Doxorubicin” for “assays. Etoposide”, “concentrations (0-5” for “concentrations (0-15”, “viability measurements” for “viability measurement”, “Titer Glo.” for “Titer Glo 2.0.”

[13] = tested on: KELLY cells; test: as above; conditions: for Data Summary: effect of knockdown on sensitivity to doxorubicin: KELLY; for IC50: KELLY cells transfected with the labelled siRNA, doxorubicin added 24 hours post transfection, 72 hour incubation
Method: as §2, with “with GPC-2” for “with GPC2”, “assays. Doxorubicin” for “assays. Etoposide”, “concentrations (0-5” for “concentrations (0-15”, “viability measurements” for “viability measurement”, “Titer Glo.” for “Titer Glo 2.0.”

[14] = tested on: CHLA-172 cells; test: as above; conditions: for IC50: CHLA-172 cells transfected with the labelled siRNA, doxorubicin added 24 hours post transfection, 72 hour incubation
Method: as §2, with “with GPC-2” for “with GPC2”, “assays. Doxorubicin” for “assays. Etoposide”, “concentrations (0-5” for “concentrations (0-15”, “viability measurements” for “viability measurement”, “Titer Glo.” for “Titer Glo 2.0.”

[15] = tested on: CHP212 neuroblastoma cell line; test: Cell viability after siRNA transfection, 96 hour (Example 4, FIG. 4B); conditions: 96 hour incubation (FIG. 4B)
Method: The extent of GPC2 mRNA reduction was assessed with additional GPC2 siRNA sequences in the CHP212 neuroblastoma cell line. Cells were transfected with either a scrambled control siRNA or with GPC2 siRNA sequences 3 or 5, or with siRNA sequences 6-11 (Sigma) using the RNAiMAX Lipofectamine kit (Invitrogen, Carlsbad, Calif.) as previously described. Following a 96 hour incubation period, total RNA samples were collected and viability was measured in parallel plated cells.

[16] = tested on: CHLA-90 cells; test: Topotecan IC50 in siRNA-transfected cells, Cell Titer Glo 2.0 viability (Example 10); conditions: for Data Summary: effect of knockdown on sensitivity to topotecan: CHLA-90; for IC50: CHLA-90 cells transfected with the labelled siRNA, topotecan added 24 hours post transfection, 72 hour incubation
Method: as §2, with “sequences” for “sequences 3,”, “Topotecan” for “Etoposide”, “(0-5” for “(0-15”, “measurements” for “measurement”

[17] = tested on: SKNAS cells; test: as above; conditions: for Data Summary: effect of knockdown on sensitivity to topotecan: SKNAS; for IC50: SKNAS cells transfected with the labelled siRNA, topotecan added 24 hours post transfection, 72 hour incubation
Method: as §2, with “sequences” for “sequences 3,”, “Topotecan” for “Etoposide”, “(0-5” for “(0-15”, “measurements” for “measurement”

[18] = tested on: KELLY cells; test: as above; conditions: for Data Summary: effect of knockdown on sensitivity to topotecan: KELLY; for IC50: KELLY cells transfected with the labelled siRNA, topotecan added 24 hours post transfection, 72 hour incubation
Method: as §2, with “sequences” for “sequences 3,”, “Topotecan” for “Etoposide”, “(0-5” for “(0-15”, “measurements” for “measurement”

[19] = tested on: CHP212 cells; test: as above; conditions: for Data Summary: effect of knockdown on sensitivity to topotecan: CHP212; for IC50: CHP212 cells transfected with the labelled siRNA, topotecan added 24 hours post transfection, 72 hour incubation
Method: as §2, with “sequences” for “sequences 3,”, “Topotecan” for “Etoposide”, “(0-5” for “(0-15”, “measurements” for “measurement”

[20] = tested on: SK-N-BE2 cells; test: as above; conditions: for Data Summary: effect of knockdown on sensitivity to topotecan: SK-N-BE2; for IC50: SK-N-BE2 cells transfected with the labelled siRNA, topotecan added 24 hours post transfection, 72 hour incubation
Method: as §2, with “sequences” for “sequences 3,”, “Topotecan” for “Etoposide”, “(0-5” for “(0-15”, “measurements” for “measurement”

[21] = tested on: SH-SY5Y cells; test: as above; conditions: for Data Summary: effect of knockdown on sensitivity to topotecan: SH-SY5Y; for IC50: SH-SY5Y cells transfected with the labelled siRNA, topotecan added 24 hours post transfection, 72 hour incubation
Method: as §2, with “sequences” for “sequences 3,”, “Topotecan” for “Etoposide”, “(0-5” for “(0-15”, “measurements” for “measurement”

Substance | Data Summary: effect of knockdown on sensitivity to cisplatin [1] | IC50 [1] [nM] | Data Summary: effect of knockdown on sensitivity to cisplatin [2] | IC50 [2] [nM] | IC50 [3] [nM] | Data Summary: effect of knockdown on sensitivity to cisplatin [4] | IC50 [4] [nM] | IC50 [5] [nM] | IC50 [6] [nM] | IC50 [7] [nM] | Data Summary: effect of knockdown on sensitivity to etoposide [8] | IC50 [8] [nM] | Data Summary: effect of knockdown on sensitivity to etoposide [9] | IC50 [9] [nM] | Data Summary: effect of knockdown on sensitivity to etoposide [10] | IC50 [10] [nM] | IC50 [11] [nM] | Data Summary: effect of knockdown on sensitivity to doxorubicin [12] | IC50 [12] [nM] | Data Summary: effect of knockdown on sensitivity to doxorubicin [13] | also measured
GPC2 siRNA 3: siRNA duplex: sense CCUGCUUGGACCUCGAUAA[dT][dT] (SEQ ID NO: 207), anti-sense UUAUCGAGGUCCAAGCAGG[dT][dT] (SEQ ID NO: 208) (sense CCUGCUUGGACCUCGAUAANN; antisense UUAUCGAGGUCCAAGCAGGNN; 3' dTdT overhangs, chemistry not fully specified; listed as Homo sapiens) | increases sensitivity to | 11000 | increases sensitivity to | 20000 | 13000 | increases sensitivity to | 7400 | 8000 | 17600 | 170 | increases sensitivity to etoposide | 40 | increases sensitivity to etoposide | 70 | increases sensitivity to etoposide | 2000 | 170 | increases sensitivity to | 40 | not increase sensitivity | Data Summary: effect of knockdown on sensitivity to etoposide ([7]; CHLA-136): increases sensitivity to etoposide; IC50 [13]: 70 nM; IC50 [14]: 2000 nM
GPC2 siRNA 5: siRNA duplex: sense CUCAGUAGCCCAGCACUCU[dT][dT] (SEQ ID NO: 211), anti-sense AGAGUGCUGGGCUACUGAG[dT][dT] (SEQ ID NO: 212) (sense CUCAGUAGCCCAGCACUCUTT; antisense AGAGUGCUGGGCUACUGAGTT; sugars from the 5' end r19 d2, backbone not given here; listed as Homo sapiens) | increases sensitivity to | 6000 | increases sensitivity to | 9000 | 1000 | increases sensitivity to | 6000 | 3000 | 9300 | 80 | increases sensitivity to etoposide | 20 | increases sensitivity to etoposide | 60 | increases sensitivity to etoposide | 900 | 80 | increases sensitivity to | 20 | not increase sensitivity | Data Summary: effect of knockdown on sensitivity to cisplatin ([3]; GIST-T1): increases sensitivity to; Data Summary: effect of knockdown on sensitivity to cisplatin ([5]; SK-N-BE2): increases sensitivity to; Data Summary: effect of knockdown on sensitivity to cisplatin ([6]; SH-SY5Y): increases sensitivity to; Viability decrease among sequences 3, 5, 6-11 [15]: greater viability decrease; Data Summary: effect of knockdown on sensitivity to topotecan [16]: not increase sensitivity to topotecan; IC50 [16]: 110 nM; Data Summary: effect of knockdown on sensitivity to topotecan [17]: increases sensitivity to topotecan; IC50 [17]: 20 nM; Data Summary: effect of knockdown on sensitivity to topotecan [18]: not increase sensitivity to topotecan; IC50 [18]: 60 nM; Data Summary: effect of knockdown on sensitivity to topotecan [19]: not increase sensitivity to topotecan; IC50 [19]: 10 nM; Data Summary: effect of knockdown on sensitivity to topotecan [20]: not increase sensitivity to topotecan; IC50 [20]: 10 nM; Data Summary: effect of knockdown on sensitivity to topotecan [21]: not increase sensitivity to topotecan; IC50 [21]: 40 nM; Data Summary: effect of knockdown on sensitivity to doxorubicin ([11]; CHLA-136): KD with sequence 5 increases; IC50 [13]: 60 nM; Data Summary: effect of knockdown on sensitivity to doxorubicin ([14]; CHLA-172): KD with sequence 5 increases; IC50 [14]: 900 nM
GPC2 siRNA 7: siRNA duplex: sense CUCCUUUCUGGUUCACACA[dT][dT] (SEQ ID NO: 215), anti-sense UGUGUGAACCAGAAAGGAG[dT][dT] (SEQ ID NO: 216) (sense rCrUrCrCrUrUrUrCrUrGrGrUrUrCrArCrArCrAdTdT; antisense rUrGrUrGrUrGrArArCrCrArGrArArArGrGrArGdTdT; listed as Homo sapiens) |  |  |  |  |  |  |  |  |  |  |  |  |  |  |  |  |  |  |  |  | Viability decrease among sequences 3, 5, 6-11 [15]: greater viability decrease; Data Summary: effect of knockdown on sensitivity to topotecan [16]: not increase sensitivity to topotecan; IC50 [16]: 140 nM; Data Summary: effect of knockdown on sensitivity to topotecan [17]: increases sensitivity to topotecan; IC50 [17]: 20 nM; Data Summary: effect of knockdown on sensitivity to topotecan [18]: not increase sensitivity to topotecan; IC50 [18]: 20 nM; Data Summary: effect of knockdown on sensitivity to topotecan [19]: not increase sensitivity to topotecan; IC50 [19]: 10 nM; Data Summary: effect of knockdown on sensitivity to topotecan [20]: not increase sensitivity to topotecan; IC50 [20]: 10 nM; Data Summary: effect of knockdown on sensitivity to topotecan [21]: not increase sensitivity to topotecan; IC50 [21]: 40 nM
